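Compound exposure: 48 hours, 5 concentrations, 96-well plates. TGI denotes the concentration required for complete inhibition of growth.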
Experiments:
Experiment in all cases: growth of human tumour cells (NCI), 48 h
[1] = system: RXF 393 renal
[2] = system: MDA-N
[3] = system: NCI-H23 lung
[4] = system: NCI/ADR-RES ovarian
[5] = system: HOP-62 NSCLC
[6] = system: NCI-H522 lung
[7] = system: M14 melanoma
[8] = system: 786-0 renal
[9] = system: UACC-62 melanoma
[10] = system: HCT-116 colon
[11] = system: SF-539 CNS

Structure (SMILES) | TGI [1] [µM] | TGI [2] [µM] | TGI [3] [µM] | TGI [4] [µM] | TGI [5] [µM] | TGI [6] [µM] | TGI [7] [µM] | TGI [8] [µM] | TGI [9] [µM] | TGI [10] [µM] | TGI [11] [µM]
CC(=O)Oc1ccn2nc(C)c(Br)c2c1 | > 100 | > 100 | > 100 | > 100 | > 100 | 97.1 | > 100 | > 100 | > 100 | > 100 | > 100
COc1ccc([C@]23CCC4(OCC(C)(C)CO4)[C@H]4CON(O[C@H](O[C@@H]5CCCCC5C(C)(C)c5ccccc5)C2)[C@@H]43)cc1OC (stereo partly drawn) | > 100 | > 100 | > 100 | > 100 | > 100 | > 100 | > 100 | > 100 | > 100 | > 100 | 76.5
O=C(c1ccc([N+](=O)[O-])cc1)N1CCCC1 | > 100 | > 100 | > 100 | > 100 | > 100 | > 100 | > 100 | > 100 | > 100 | > 100 | > 100
N#CCCN(CCC#N)c1ccc(C(N=Nc2ccccc2)=Nc2ccc(F)cc2)cc1 | > 100 | > 100 | > 100 | > 100 | > 100 | 69.8 | > 100 | > 100 | > 100 | > 100 | > 100
c1ccc2c(c1)cc1ccc3cccc4ccc2c1c34 | > 100 | > 100 | > 100 | > 100 | > 100 | > 100 | > 100 | > 100 | > 100 | > 100 | > 100
CC1=C(C(=O)OCCO[N+](=O)[O-])C(c2ccccc2[N+](=O)[O-])C(C(=O)OC(C)C)=C(C)N1 (stereo not drawn) | 30.3 | 31.1 | 48.5 | 51.7 | 33.8 | 30.5 | 29.3 | 41.4 | 28.6 | 29.8 | 33.2
Cc1nc2c(=O)n(-c3ccccc3)c(=O)n(-c3ccccc3)c2o1 | > 100 | > 100 | > 100 | > 100 | > 100 | > 100 | > 100 | > 100 | > 100 | > 100 | > 100
CC/C=N\N1C(N)=C(C#N)C(C#N)(C#N)C1CC (stereo not drawn) | > 100 | > 100 | > 100 | > 100 | > 100 | > 100 | > 100 | > 100 | > 100 | > 100 | 80.8
CC1=NN2C(=N)/C(=C/c3ccc(F)cc3)C(=O)N=C2S1 | > 100 | > 100 | > 100 | 28.5 | > 100 | > 100 | > 100 | > 100 | > 100 | > 100 | > 100
N#C/C(C(=O)NCc1ccccc1)=C(/N)N1CCCC1 | > 100 | > 100 | > 100 | > 100 | > 100 | > 100 | > 100 | > 100 | > 100 | > 100 | > 100
CSc1nc(Cl)c2c(n1)Sc1nc3ccccc3n1C2O (stereo not drawn) | 20.8 | > 100 | > 100 | > 24.4 | > 79 | 7.28 | > 100 | 18 | > 100 | > 33.1 | 3.8
CC(C)=CCc1c(O)cc2oc(-c3ccc(O)cc3O)cc(=O)c2c1O | 64.8 | 72.3 | 58.2 | > 94.4 | > 92.8 | 53.6 | > 77.9 | 74.5 | 34.6 | 61.1 | 58.7
CCc1nc2c(c(N(C)C)c1C(=O)OC)CCc1ccccc1-2 | 73.8 | 81.5 | > 100 | > 100 | 63.5 | 45.6 | 74.2 | > 100 | 40.4 | > 100 | > 100
COc1ccc(-c2cc3cc(Cl)cc(Cl)c3oc2=O)cc1OC | 75.8 | > 100 | > 100 | > 100 | > 100 | > 100 | > 100 | > 100 | > 100 | > 100 | > 100
CCOC(=O)[C@@H](Cc1ccc(CCl)cc1)NC(C)=O | 30.3 | 40.2 | 68.3 | 43.9 | 75.1 | 35.5 | 89.3 | 40.4 | 31.5 | > 100 | 36.4
Clc1ccc(/C(=C/c2ccccc2)Cn2ccnc2)cc1 | 50.7 | 46.6 | > 100 | 66.6 | > 100 | 57.6 | 65.6 | > 100 | > 100 | > 100 | 80.9
C[As+](C)(c1ccc(Br)c([N+](=O)[O-])c1)c1ccc(Br)c([N+](=O)[O-])c1.O=[N+]([O-])O | > 100 | > 100 | > 100 | > 100 | > 100 | > 100 | > 100 | > 100 | > 100 | > 100 | > 100
O=c1c2c3c(sc2nc2n1N=C(c1ccc(Br)cc1)CS2)CCCC3 | > 100 | > 100 | > 100 | > 100 | > 100 | > 100 | > 100 | > 100 | > 100 | > 100 | > 100

Structure (SMILES) | TGI [1] [µM] | TGI [2] [µM] | TGI [3] [µM] | TGI [4] [µM] | TGI [5] [µM] | TGI [6] [µM] | TGI [7] [µM] | TGI [8] [µM] | TGI [9] [µM] | TGI [10] [µM] | TGI [11] [µM]
C[C@H]1[C@H](C)CC[C@]2(C(=O)OC3OC(CO)C(O)C(O)C3O)CC[C@]3(C)C(=CC[C@@H]4[C@@]5(C)C[C@@H](O)[C@@H]6OC(=O)c7cc(O)c(O)c(O)c7-c7c(cc(O)c(O)c7O)C(=O)OC[C@@]6(CO)[C@@H]5CC[C@]43C)[C@H]12 (stereo partly drawn) | > 100 | 51.4 | > 100 | > 100 | > 100 | > 100 | > 100 | > 53.7 | > 100 | > 100 | > 100
CC1(C)N=C(N)N=C(N)N1c1cccc(Cl)c1 | > 100 | > 100 | > 100 | > 100 | > 100 | > 100 | > 100 | > 100 | > 100 | > 100 | > 100
CC(=N/NC(=S)N(C)C)/C(=N\NC(=S)N(C)C)c1ccccc1 | 2.95 | 8.58 |  | 4.99 | 5.33 | 3.78 | 4.14 | 4.04 | 4.44 | 9.77 | 25.8
NC(=O)c1ccc[n+](C2=C([O-])c3ccccc3C(=O)/C2=N\S(=O)(=O)c2ccccc2)c1 | 29.5 | 31 | 30.6 | 36.3 | 33 | 24.1 | 29.1 | 32.3 | 32.1 | 32.4 | 32.2
NC(=O)NN=C1Cc2ccccc2C1 | > 100 | > 100 | > 100 | > 100 | > 100 | > 100 | > 100 | > 100 | > 100 | > 100 | > 100
Cc1cccc2c1CC(Cc1ccccc1C(=O)O)C2=O (stereo not drawn) | > 100 | > 100 | > 100 | > 100 | > 100 | > 100 | > 100 | > 100 | > 100 | > 100 | > 100
CC(C)=CCC[C@@H](C)C1=C(Nc2ccccc2F)C(O)=C(C)C(=O)C1=O | > 64.1 | > 100 | 36.1 | > 23.8 | > 72.1 | 17.1 | > 100 | > 100 | 22.6 | > 35.7 | 59.8
O=C1c2cc3c(cc2CC12Cc1ccc4c(c1C2=O)CCC4)CCC3 (stereo not drawn) | > 100 | > 100 | > 100 | > 100 | > 100 | > 100 | > 100 | > 100 |  | > 100 | > 100
CCN(CC)C(=S)N/N=C(/c1ccccc1)c1ccccn1 | 8.63 | 26.1 | > 43.3 | 14.3 | 13.6 | > 100 | 0.794 | 1.19 |  | 13.6 | 4.24
COc1ccc2c(c1OC)C(=O)N1C2=Cc2c(cc3c(c2OC)OCO3)CC1N(C)C (stereo not drawn) | > 100 | > 100 | > 100 | > 100 | > 100 | > 100 | > 100 | > 100 | > 100 | > 100 | > 100
Oc1ccccc1/C=N/N1C(=S)N(C23CC4CC(CC(C4)C2)C3)C(=Nc2ccccc2)C1=Nc1ccccc1 | > 100 | > 100 | > 100 | > 100 | > 100 | > 100 | > 100 | > 100 | > 100 | > 100 | > 100
O=C(NC(C(F)(F)F)(C(F)(F)F)P(=O)(Cc1ccccc1)Cc1ccccc1)C(C(F)(F)F)C(F)(F)F | 47.6 | 43.6 | 40.8 | 44 | 41.6 | 60.4 | 34.8 | 34.4 | 62.4 | 33.1 | 43.6
CCOC(=O)/C=C/CCC(C)(C)COC(C)=O | > 10 | > 10 | > 10 | > 10 | > 10 | > 10 | > 10 | > 10 | > 10 | > 10 | > 10
CC1=C(C)SC(=C2Sc3c(n(C)c(=O)n(C)c3=O)S2)S1 | > 100 | > 100 | > 100 | > 100 | 41.3 | > 100 | > 100 | 34.8 | > 100 | 27.5 | 26.8
CC1(C)OCC(C2OC(C)(C)OC2[C@H]2O[C@@]3(O)[C@H]4[C@H](C=CC[C@@H]42)[C@@H](OCc2ccccc2)[C@H](OCc2ccccc2)[C@H]3OCc2ccccc2)O1 (stereo partly drawn) | 82.1 | 44.8 | > 100 | > 100 | > 100 | > 100 | > 100 | > 100 | > 100 | > 100 | > 100
O=C1CSC(c2c[nH]c3ccccc23)N1c1ccc(Cl)cc1Cl (stereo not drawn) | > 100 | > 100 | > 100 | > 100 | > 100 | > 100 | > 100 | > 100 | > 100 | > 100 | > 100
COc1cc2c(cc1OCc1ccccc1)NC(=O)[C@@H]1CCCN1C2=O | > 100 | > 100 | > 100 | > 100 | > 100 | > 100 | > 100 | > 100 | > 100 | > 100 | > 100
CCC1([N+](=O)[O-])CN(N=O)C1 | > 100 | > 100 | > 100 | > 100 | > 100 | > 100 | > 100 | > 100 | > 100 | > 100 | > 100
